A short description of data set [1]: metabolite profiling in pooled urine (radioprofiling, LC‐MS). Type of data set: in vivo, human. The settings on record: pooled urine 0‐96 hours, mean. Here is the method: (§1) Total radioactivity concentrations of [^14C]‐pamiparib in whole blood, plasma, urine, and feces were determined by liquid scintillation counting (LSC). Radioactivity in each sample was measured for 5 minutes using a Packard Tri‐Carb liquid scintillation counter model 2100TR, 2900TR, or 3100TR (Canberra Packard, Pangbourne, Berks, Australia) with the facilities for computing quench‐corrected disintegrations per minute. Metabolite identification in plasma, urine, and feces was conducted by LC‐MS. Quantitation of the metabolites present in plasma, urine, and feces was based on the profiles of radioactivity. The limit of quantitation for radioactivity in plasma, urine, and feces was set at 1% of each chromatographic analysis (run) and 10 counts per minute (cpm) peak height; therefore, radioactive peaks that were <1% of the total run or <10 cpm peak height were reported as not detected. In addition, pamiparib and standards were reported, regardless of the percentage of run or peak height.
Each aliquot of urine (about 1 mL, weighed) was added directly to liquid scintillant prior to LSC. For metabolite profiling, urine samples collected 0‐4, 4‐8, 8‐12, 12‐24, 24‐48, 48‐72, and 72‐96 hours postdose were pooled by individual patient to generate 0‐ to 96‐hour pooled samples including 0.2% of each sample by weight. The radioactivity in each pooled sample was determined by LSC. The total amount of urine collected was factored into the recovery calculation. […] Pooled urine samples were analyzed by LC‐MS, with eluent fractions collected at 10‐second intervals into 96‐well plates containing solid scintillant. Radioactivity in each well was determined using TopCount analysis, and radiochemical profiles were generated based on radioactivity counts.
(§2) Metabolic profiling was performed on plasma, urine, and feces samples using LC‐MS. Shimadzu/Nexera LC‐30AD pumps and Shimadzu/Prominence DGU‐20A5R degasser were used with Shimadzu/Prominence controller CBM‐20A. The high‐pressure liquid chromatograph (HPLC) was equipped with an autoinjector (Shimadzu/Nexera SIL‐30ACMP) set at 10°C and a fraction collector (Leap Technologies PAL HTC‐xt) set at 15°C. Thermo Fisher Scientific Q Exactive was the mass spectrometer system.

Data set [2] deals with rCYP1A2, rCYP2B6, rCYP2C8, rCYP2C9, rCYP2C19, rCYP2D6, rCYP3A4. The experiment in a line: incubation of pamiparib with recombinant P450 isoform panel. The settings on record: 1 μM pamiparib, 50 pmol/mL, 90 minutes. Type of data set: in vitro ADME. The method, then:
(§3) Metabolic stability in human liver microsomes (HLMs) and cytochrome P450 (CYP450) phenotyping assays were conducted in 3D BioOptima (Suzhou, China) using validated methodology, [13] to determine the intrinsic clearance and enzymes responsible for metabolism of pamiparib. HLMs for microsome stability was from BD Biosciences (Woburn, New York). For phenotyping, HLMs and recombinant P450 (rCYP) were from Corning (Woburn, New York). Pamiparib (1 μM) was incubated with pooled HLM (0.5 mg/mL), NADPH (1 mM), and MgCl2 (3 mM) terminated at 0, 5, 15, 30, 60, and 90 minutes. The intrinsic clearance was calculated as 0.693/(t1/2 × HLM concentration), where t1/2 is the half‐life of pamiparib determined in HLMs. For phenotyping in HLMs, pamiparib (1 μM) was incubated in the absence or presence of isoform‐selective inhibitors: 0.2 μM α‐naphthoflavone for CYP1A2, 2 μM clopidogrel for CYP2B6, 16 μM montelukast for CYP2C8, 10 μM sulfaphenazole for CYP2C9, 30 μM nootkatone for CYP2C19, 2 μM quinidine for CYP2D6, and 1 μM ketoconazole for CYP3A. The following isoform‐selective probe substrates served as positive controls: 40 μM phenacetin for CYP1A2, 100 μM bupropion for CYP2B6, 2 μM amodiaquine for CYP2C8, 5 μM diclofenac for CYP2C9, 40 μM S‐mephenytoin for CYP2C19, 5 μM dextromethorphan for CYP2D6, and 2 μM midazolam for CYP3A4. […] Pamiparib, M1, and M2 were analyzed by LC‐MS/MS.

The target of data set [3] is T1, rCYP2D6 (Homo sapiens, UniProt P10635).
T1 construct: purchased Corning (Woburn, New York)
The experiment in a line: incubation of pamiparib with recombinant CYP2D6. Type of data set: in vitro ADME. The settings on record: 1 μM pamiparib, 50 pmol/mL, 90 minutes. The method, then: as §3

For data set [4], the target named is T2, rCYP3A4 (Homo sapiens, UniProt P08684).
T2 construct: purchased Corning (Woburn, New York)
The experiment in a line: incubation of pamiparib with recombinant CYP3A4. Type of data set: in vitro ADME. The settings on record: 1 μM pamiparib, 50 pmol/mL, 90 minutes. Here is the method: as §3

The nature of data set [5]: stability of metabolite M2. The settings on record: dehydrates in the LC‐MS source or under other conditions. Type of data set: physicochemical.
Data set [6] is described as follows: metabolite profiling in pooled feces (radioprofiling, LC‐MS). Type of data set: in vivo, human. The settings on record: pooled feces 0‐120 hours, mean. Here is the method:
as §1
Portions of fecal homogenates (about 200‐500 mg) were subjected to combustion analysis prior to LSC. For metabolite profiling, feces samples collected 0‐24, 24‐48, 48‐72, 72‐96, and 96‐120 hours postdose were pooled by individual patient to generate 0‐ to 120‐hour pooled samples including 0.5% of each sample by weight. Feces were pooled per patient (if required) according to the appropriate 24‐hour collection period. The samples were homogenized in deionized water, avoiding excessive dilution (data on file). The radioactivity in each pooled sample was determined by LSC. The total amount of feces collected was factored into the recovery calculation. Approximately 1.6 to 2.7 g of each pooled feces sample was extracted twice with 6 mL of 0.1% formic acid in ACN. […] The combined supernatants were evaporated to dryness under nitrogen and reconstituted in 300 μL of MeOH. […] The reconstituted samples were analyzed by LC‐MS, with eluent fractions collected, and radiochemical profiles were generated based on radioactivity counts. […]

A short description of data set [7]: metabolite profiling in plasma (radioprofiling, LC‐MS). It is filed as in vivo, human. The settings on record: plasma. The method, then: as §1
For metabolite profiling in plasma, ≈1.9 to 2.8 g of each plasma sample collected 0.5, 1, 2, 6, 12, and 24 hours postdose was extracted twice with 6 mL of 0.1% formic acid in acetonitrile (ACN). Duplicate aliquots were analyzed by LSC to determine extraction recoveries, which ranged from 77.4% to 98.5%. The combined supernatants were evaporated to dryness under nitrogen and reconstituted in 2:1 reverse osmosis water:methanol (MeOH). Duplicate aliquots were analyzed by LSC to determine reconstitution recoveries, which ranged from 89.3% to 115%. The reconstituted samples were analyzed by LC‐MS, with eluent fractions collected at 10‐second intervals into 96‐well plates containing solid scintillant. Radioactivity in each well was determined using TopCount analysis, and radiochemical profiles were generated based on radioactivity counts.
as §2

In data set [8] the target is T3, rCYP2C8 (Homo sapiens, UniProt P10632).
T3 construct: purchased Corning (Woburn, New York)
T3 sequence (P10632 1-490): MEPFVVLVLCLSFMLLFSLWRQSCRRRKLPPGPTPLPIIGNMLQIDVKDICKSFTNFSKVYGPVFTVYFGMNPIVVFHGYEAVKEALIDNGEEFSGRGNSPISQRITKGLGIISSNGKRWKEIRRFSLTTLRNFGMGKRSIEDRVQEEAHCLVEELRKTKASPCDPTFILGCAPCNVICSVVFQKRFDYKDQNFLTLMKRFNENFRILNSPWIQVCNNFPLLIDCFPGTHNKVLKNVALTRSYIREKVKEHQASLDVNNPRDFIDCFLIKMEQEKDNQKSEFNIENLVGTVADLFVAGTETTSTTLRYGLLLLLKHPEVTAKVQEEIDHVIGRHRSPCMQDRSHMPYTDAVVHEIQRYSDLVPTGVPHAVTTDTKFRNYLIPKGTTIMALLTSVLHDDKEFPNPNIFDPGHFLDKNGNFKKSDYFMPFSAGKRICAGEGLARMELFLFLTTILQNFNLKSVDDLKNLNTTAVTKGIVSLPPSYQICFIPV
The experiment in a line: incubation of pamiparib with recombinant CYP2C8. Type of data set: in vitro ADME. The settings on record: 1 μM pamiparib, 50 pmol/mL, 90 minutes. The method, then:
as §3

Entries after “also recorded” stand apart in the source; their conditions may differ.

T1 sequence (P10635 whole entry): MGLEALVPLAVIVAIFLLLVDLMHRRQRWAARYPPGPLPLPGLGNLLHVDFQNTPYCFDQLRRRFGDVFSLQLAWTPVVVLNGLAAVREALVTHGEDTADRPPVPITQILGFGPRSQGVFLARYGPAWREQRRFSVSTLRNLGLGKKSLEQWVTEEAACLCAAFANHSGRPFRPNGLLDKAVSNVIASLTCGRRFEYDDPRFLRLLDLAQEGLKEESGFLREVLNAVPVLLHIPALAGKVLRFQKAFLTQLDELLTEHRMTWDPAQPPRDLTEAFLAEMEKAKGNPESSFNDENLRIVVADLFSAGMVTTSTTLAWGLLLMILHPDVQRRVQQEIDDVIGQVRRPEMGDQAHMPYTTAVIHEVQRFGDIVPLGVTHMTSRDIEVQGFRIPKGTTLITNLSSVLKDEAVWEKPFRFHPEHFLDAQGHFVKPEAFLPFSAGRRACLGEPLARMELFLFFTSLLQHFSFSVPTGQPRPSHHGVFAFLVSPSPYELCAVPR
T2 sequence (P08684 whole entry): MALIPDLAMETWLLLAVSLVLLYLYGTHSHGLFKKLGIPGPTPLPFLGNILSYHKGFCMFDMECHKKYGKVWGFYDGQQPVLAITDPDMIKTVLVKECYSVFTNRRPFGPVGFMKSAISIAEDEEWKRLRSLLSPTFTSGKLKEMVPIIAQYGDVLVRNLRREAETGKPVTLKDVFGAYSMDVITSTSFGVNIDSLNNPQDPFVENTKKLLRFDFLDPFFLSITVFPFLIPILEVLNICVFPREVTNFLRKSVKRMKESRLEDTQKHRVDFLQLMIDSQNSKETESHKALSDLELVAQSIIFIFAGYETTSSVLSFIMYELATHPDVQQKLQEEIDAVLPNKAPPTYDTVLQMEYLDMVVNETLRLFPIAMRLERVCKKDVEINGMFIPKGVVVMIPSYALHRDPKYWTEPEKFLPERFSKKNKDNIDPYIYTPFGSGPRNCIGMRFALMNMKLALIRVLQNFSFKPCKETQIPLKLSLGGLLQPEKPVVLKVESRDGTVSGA

As to `C[C@]12CCC[N+]1([O-])CC1=NNC(=O)c3cc(F)cc4[nH]c2c1c34` (stereo partly drawn) [Metabolite M1], the “% of Radioactive Dose, Urine” value in data set [1] was 0.53%. Besides, the “metabolite detection across rCYP isoforms” value in data set [2] is “not detected with other rCYP isoforms”. Besides, the “metabolite formation after incubation of pamiparib with rCYP2D6” value in data set [3] is “detected; also recorded: generated”. Besides, in data set [4], the “metabolite formation after incubation of pamiparib with rCYP3A4” value is on record as “detected; also recorded: generated”.

`C[C@]12CCC(O)N1CC1=NNC(=O)c3cc(F)cc4[nH]c2c1c34` (stereo partly drawn) [Metabolite M2]: the “% of Radioactive Dose, Urine” value in data set [1] was “not identified”. In addition, the “stability of the metabolite” value in data set [5] was “not stable”. The “% of Radioactive Dose, Feces” value in data set [6] is “not identified”. In addition, the “metabolite detection across rCYP isoforms” value in data set [2] is reported as “detected in all isoforms except rCYP2C9”. The “Percent of Total Radioactivity Concentration (AUC0‐24h)” value was 2.00% in data set [7] (patient S103) and 4.38% in data set [7] (patient S104). Besides, in data set [3], the “metabolite formation after incubation of pamiparib with rCYP2D6” value is listed as “higher levels; also recorded: generated”. For the same molecule, in data set [8], the “metabolite formation after incubation of pamiparib with rCYP2C8” value is listed as “higher levels; also recorded: generated”. Moreover, the “metabolite formation after incubation of pamiparib with rCYP3A4” value in data set [4] is reported as “higher levels”.

With `C[C@]1(CCCO)NCC2=NNC(=O)c3cc(F)cc4[nH]c1c2c34` [Metabolite M10, pamiparib hydrate], the “% of Radioactive Dose, Urine” value in data set [1] is 8.05%. Also, the “% of Radioactive Dose, Feces” value in data set [6] is 1.3%.

The values are drawn from paper PMC8453745, “Human Mass Balance and Metabolite Profiling of [^14C]‐Pamiparib, a Poly (ADP‐Ribose) Polymerase Inhibitor, in Patients With Advanced Cancer” (Clinical Pharmacology in Drug Development, 2021).
